Assay results from ChEMBL document CHEMBL1240302, “Small-molecule interaction with a five-guanine-tract G-quadruplex structure from the human MYC promoter” (Nat Chem Biol, 2005).
The source made the active and inactive calls. The calls are words filed in the database; no cut-off is given here.

Test system: Nucleic Acid
Test: Binding affinity to human c-MYC Pu24I G-quadruplex structure assessed as stabilization of G-quadruplex by NMR spectroscopy
Assay type: nucleic-acid assay

SMILES: CN1CCN(c2ccc3[nH]c(-c4ccc5[nH]c(-c6ccc(O)cc6)nc5c4)nc3c2)CC1
- Activity: Active

SMILES: COc1cccc2c1C(=O)c1c(O)c3c(c(O)c1C2=O)C[C@@](O)(C(C)=O)C[C@@H]3O[C@H]1C[C@H](N)[C@H](O)[C@H](C)O1
- Activity: Active

SMILES: C[n+]1ccc(-c2c3nc(c(-c4cc[n+](C)cc4)c4ccc([nH]4)c(-c4cc[n+](C)cc4)c4ccc([nH]4)c(-c4cc[n+](C)cc4)c4nc2C=C4)C=C3)cc1
- Activity: Active

SMILES: CC[n+]1c(-c2ccccc2)c2cc(N)ccc2c2ccc(N)cc21
- Activity: Active
